Molecules are shown by their SMILES. In brackets after ≈: the same amount, converted by molar mass. Activity calls are given as the source filed them. The rule behind the calls is not given here.

The subject of one assay is Candida albicans. The assay can be described thus: Antifungal activity against candida albicans was determined; Active. It is filed as functional, organism-based.
For the next assay, the system named is HCT-116. Description: Cytotoxicity against a human colon cancer cell line (HCT116 cells) was reported. It is filed as functional.

As usually defined, the IC90 is the concentration at which the effect reaches the 90% level. Higher therefore signals a need for much substance. On to `COc1cc(CCN)c2c(c1OC)SSSSS2` [VARACIN], for which, in the assay with Candida albicans, the result was Active. The compound also returned an IC90 with HCT-116 of 0.05 µg/mL (≈ 0.147 µM).

(Values after ChEMBL document CHEMBL1130768, “DNA cleavage by 7-methylbenzopentathiepin: a simple analog of the antitumor antibiotic varacin” (1998).)
